In the supplement of paper PMC8671470:
± gives the standard deviation of the averaged measurements.

Each compound was assayed on HL-60 (assay: cell viability (% survival relative to DMSO control); higher = less cytotoxic). Conditions: 1 µM; 72 h; co-treatment: GSK2194069 100 nM.
In short: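 HL-60 cells grown in RPMI 1640 with 10% FBS were rescreened against the full library in 384-well plates, in duplicate, at five tenfold concentrations from 1 to 10,000 nM, alongside DMSO or 100 nM of one of three metabolic inhibitors for 72 h at 37 °C, 5% CO2. Reference wells contained DMSO or 10 μM proteasome inhibitor. Viability was read with CellTiter-Glo and normalised to these reference wells, and where reported, area under the curve was taken from four-parameter log-logistic fits in drc and PharmacoGx.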

SMILES | cell viability
CC(C)CC(=O)N[C@H](C(=O)N[C@H](C(=O)N[C@@H](CC(C)C)[C@@H](O)CC(=O)N[C@@H](C)C(=O)N[C@@H](CC(C)C)[C@@H](O)CC(=O)O)C(C)C)C(C)C [Pepstatin A] | 103 ± 5.4%
Cc1cccc(Nc2cc(Cl)nc(SCC(=O)O)n2)c1C [Pirinixic acid] | 99.1 ± 5.2%
C[C@]12C=CC(=O)C=C1CC[C@@H]1[C@@H]2[C@@H](O)C[C@@]2(C)[C@H]1CC[C@]2(O)C(=O)CO [Prednisolone] | 101 ± 0.96%
C=CCN(C)CCCCCCOc1ccc(C(=O)c2ccc(Br)cc2)c(F)c1.O=C(O)/C=C/C(=O)O [Ro 48-8071 fumarate] | 104 ± 26%

Same assay, conditions: 1 µM; 72 h; co-treatment: pictilisib 100 nM

SMILES | cell viability
CN(Cc1cnc2nc(N)nc(N)c2n1)c1ccc(C(=O)N[C@@H](CCC(=O)O)C(=O)O)cc1 [Methotrexate] | 27.3 ± 2.5%
COC(=O)c1cc2c(C(F)(F)F)cc(-c3ccccc3)cc2n1O [NHI-2] | 99.3 ± 8.1%
CCCCCCCC/C=C\CCCCCCCC(=O)Nc1ccccc1 [Octadec-9-Enoic Acid Phenylamide] | 108 ± 10%
CC[C@H](C)[C@H](N)C(=O)N1CCSC1 [P32/98] | 105 ± 3.8%
CC(=O)Nc1nc(C)c(-c2ccc(Cl)c(S(=O)(=O)NCCO)c2)s1 [PIK93] | 70.2 ± 3.8%
OC[C@H]1O[C@@H](n2cnc3c2N=CNC[C@H]3O)C[C@@H]1O [Pentostatin] | 103 ± 7.5%
CC(C)CC(=O)N[C@H](C(=O)N[C@H](C(=O)N[C@@H](CC(C)C)[C@@H](O)CC(=O)N[C@@H](C)C(=O)N[C@@H](CC(C)C)[C@@H](O)CC(=O)O)C(C)C)C(C)C [Pepstatin A] | 89.9 ± 7%
Cc1cccc(Nc2cc(Cl)nc(SCC(=O)O)n2)c1C [Pirinixic acid] | 102 ± 3.8%
C[C@]12C=CC(=O)C=C1CC[C@@H]1[C@@H]2[C@@H](O)C[C@@]2(C)[C@H]1CC[C@]2(O)C(=O)CO [Prednisolone] | 105.5 ± 0.27%
C=CCN(C)CCCCCCOc1ccc(C(=O)c2ccc(Br)cc2)c(F)c1.O=C(O)/C=C/C(=O)O [Ro 48-8071 fumarate] | 84.2 ± 6.5%

Same assay, conditions: 10 µM; 72 h; co-treatment: AZD3965 100 nM

SMILES | cell viability
CN(Cc1cnc2nc(N)nc(N)c2n1)c1ccc(C(=O)N[C@@H](CCC(=O)O)C(=O)O)cc1 [Methotrexate] | 26.8 ± 2.2%
COC(=O)c1cc2c(C(F)(F)F)cc(-c3ccccc3)cc2n1O [NHI-2] | 109 ± 7.1%
CCCCCCCC/C=C\CCCCCCCC(=O)Nc1ccccc1 [Octadec-9-Enoic Acid Phenylamide] | 90.3 ± 8.5%
CC[C@H](C)[C@H](N)C(=O)N1CCSC1 [P32/98] | 95.6 ± 4%
CC(=O)Nc1nc(C)c(-c2ccc(Cl)c(S(=O)(=O)NCCO)c2)s1 [PIK93] | 13.3 ± 3.1%
OC[C@H]1O[C@@H](n2cnc3c2N=CNC[C@H]3O)C[C@@H]1O [Pentostatin] | 100.2 ± 0.14%
CC(C)CC(=O)N[C@H](C(=O)N[C@H](C(=O)N[C@@H](CC(C)C)[C@@H](O)CC(=O)N[C@@H](C)C(=O)N[C@@H](CC(C)C)[C@@H](O)CC(=O)O)C(C)C)C(C)C [Pepstatin A] | 102 ± 5.5%
Cc1cccc(Nc2cc(Cl)nc(SCC(=O)O)n2)c1C [Pirinixic acid] | 98.02 ± 0.94%
C[C@]12C=CC(=O)C=C1CC[C@@H]1[C@@H]2[C@@H](O)C[C@@]2(C)[C@H]1CC[C@]2(O)C(=O)CO [Prednisolone] | 96.2 ± 5.2%
C=CCN(C)CCCCCCOc1ccc(C(=O)c2ccc(Br)cc2)c(F)c1.O=C(O)/C=C/C(=O)O [Ro 48-8071 fumarate] | 44.1 ± 3.5%

Same assay, conditions: 10 µM; 72 h; co-treatment: DMSO vehicle

SMILES | cell viability
CN(Cc1cnc2nc(N)nc(N)c2n1)c1ccc(C(=O)N[C@@H](CCC(=O)O)C(=O)O)cc1 [Methotrexate] | 41.2 ± 2.6%
COC(=O)c1cc2c(C(F)(F)F)cc(-c3ccccc3)cc2n1O [NHI-2] | 111 ± 6%
CCCCCCCC/C=C\CCCCCCCC(=O)Nc1ccccc1 [Octadec-9-Enoic Acid Phenylamide] | 105 ± 3.8%
CC[C@H](C)[C@H](N)C(=O)N1CCSC1 [P32/98] | 97.8 ± 4.4%
CC(=O)Nc1nc(C)c(-c2ccc(Cl)c(S(=O)(=O)NCCO)c2)s1 [PIK93] | 23.5 ± 5.9%
OC[C@H]1O[C@@H](n2cnc3c2N=CNC[C@H]3O)C[C@@H]1O [Pentostatin] | 102 ± 2.5%
CC(C)CC(=O)N[C@H](C(=O)N[C@H](C(=O)N[C@@H](CC(C)C)[C@@H](O)CC(=O)N[C@@H](C)C(=O)N[C@@H](CC(C)C)[C@@H](O)CC(=O)O)C(C)C)C(C)C [Pepstatin A] | 99.6 ± 6%
Cc1cccc(Nc2cc(Cl)nc(SCC(=O)O)n2)c1C [Pirinixic acid] | 96.4 ± 0.97%
C[C@]12C=CC(=O)C=C1CC[C@@H]1[C@@H]2[C@@H](O)C[C@@]2(C)[C@H]1CC[C@]2(O)C(=O)CO [Prednisolone] | 101.5 ± 0.82%
C=CCN(C)CCCCCCOc1ccc(C(=O)c2ccc(Br)cc2)c(F)c1.O=C(O)/C=C/C(=O)O [Ro 48-8071 fumarate] | 75.5 ± 3.5%

Same assay, conditions: 10 µM; 72 h; co-treatment: GSK2194069 100 nM

SMILES | cell viability
CN(Cc1cnc2nc(N)nc(N)c2n1)c1ccc(C(=O)N[C@@H](CCC(=O)O)C(=O)O)cc1 [Methotrexate] | 29.7 ± 2.2%
COC(=O)c1cc2c(C(F)(F)F)cc(-c3ccccc3)cc2n1O [NHI-2] | 98.4 ± 0.75%
CCCCCCCC/C=C\CCCCCCCC(=O)Nc1ccccc1 [Octadec-9-Enoic Acid Phenylamide] | 91.5 ± 6.8%
CC[C@H](C)[C@H](N)C(=O)N1CCSC1 [P32/98] | 96.6 ± 6.2%
CC(=O)Nc1nc(C)c(-c2ccc(Cl)c(S(=O)(=O)NCCO)c2)s1 [PIK93] | 18.2 ± 3.4%
OC[C@H]1O[C@@H](n2cnc3c2N=CNC[C@H]3O)C[C@@H]1O [Pentostatin] | 93.96 ± 0.9%
CC(C)CC(=O)N[C@H](C(=O)N[C@H](C(=O)N[C@@H](CC(C)C)[C@@H](O)CC(=O)N[C@@H](C)C(=O)N[C@@H](CC(C)C)[C@@H](O)CC(=O)O)C(C)C)C(C)C [Pepstatin A] | 99.9 ± 6.4%
Cc1cccc(Nc2cc(Cl)nc(SCC(=O)O)n2)c1C [Pirinixic acid] | 77.3 ± 27%
C[C@]12C=CC(=O)C=C1CC[C@@H]1[C@@H]2[C@@H](O)C[C@@]2(C)[C@H]1CC[C@]2(O)C(=O)CO [Prednisolone] | 100 ± 2%
C=CCN(C)CCCCCCOc1ccc(C(=O)c2ccc(Br)cc2)c(F)c1.O=C(O)/C=C/C(=O)O [Ro 48-8071 fumarate] | 53 ± 7%

Same assay, conditions: 10 µM; 72 h; co-treatment: pictilisib 100 nM

SMILES | cell viability
CN(Cc1cnc2nc(N)nc(N)c2n1)c1ccc(C(=O)N[C@@H](CCC(=O)O)C(=O)O)cc1 [Methotrexate] | 28.1 ± 2.8%
COC(=O)c1cc2c(C(F)(F)F)cc(-c3ccccc3)cc2n1O [NHI-2] | 97.3 ± 13%
CCCCCCCC/C=C\CCCCCCCC(=O)Nc1ccccc1 [Octadec-9-Enoic Acid Phenylamide] | 91.3 ± 8.9%
CC[C@H](C)[C@H](N)C(=O)N1CCSC1 [P32/98] | 101 ± 9.5%
CC(=O)Nc1nc(C)c(-c2ccc(Cl)c(S(=O)(=O)NCCO)c2)s1 [PIK93] | 16.6 ± 4%
OC[C@H]1O[C@@H](n2cnc3c2N=CNC[C@H]3O)C[C@@H]1O [Pentostatin] | 96.2 ± 1.8%
CC(C)CC(=O)N[C@H](C(=O)N[C@H](C(=O)N[C@@H](CC(C)C)[C@@H](O)CC(=O)N[C@@H](C)C(=O)N[C@@H](CC(C)C)[C@@H](O)CC(=O)O)C(C)C)C(C)C [Pepstatin A] | 107 ± 9.8%
Cc1cccc(Nc2cc(Cl)nc(SCC(=O)O)n2)c1C [Pirinixic acid] | 96.7 ± 5.6%
C[C@]12C=CC(=O)C=C1CC[C@@H]1[C@@H]2[C@@H](O)C[C@@]2(C)[C@H]1CC[C@]2(O)C(=O)CO [Prednisolone] | 95.8 ± 1.5%
C=CCN(C)CCCCCCOc1ccc(C(=O)c2ccc(Br)cc2)c(F)c1.O=C(O)/C=C/C(=O)O [Ro 48-8071 fumarate] | 38.3 ± 1.6%

The compounds below were run on BV-173 (assay: cell viability (% survival relative to DMSO control, bortezomib = 0%); higher = less cytotoxic). Conditions: 1 nM; 72 h.
In short: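 Percent survival is reported as the mean of duplicate wells. Cells from 10 AML and 5 CML lines were plated in 384-well plates containing compounds at 1, 10, 100, 1000 or 10000 nM and kept for 72 h at 37 °C in 5% CO2. Readout used CellTiter-Glo luminescence, scaled so that vehicle equals 100% and a 10 µM positive control equals 0%.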

SMILES | cell viability
CN(Cc1cnc2nc(N)nc(N)c2n1)c1ccc(C(=O)N[C@@H](CCC(=O)O)C(=O)O)cc1 [Methotrexate] | 107%
COC(=O)c1cc2c(C(F)(F)F)cc(-c3ccccc3)cc2n1O [NHI-2] | 100%
CCCCCCCC/C=C\CCCCCCCC(=O)Nc1ccccc1 [Octadec-9-Enoic Acid Phenylamide] | 98.4%
CC[C@H](C)[C@H](N)C(=O)N1CCSC1 [P32/98] | 96.2%
CC(=O)Nc1nc(C)c(-c2ccc(Cl)c(S(=O)(=O)NCCO)c2)s1 [PIK93] | 119%
OC[C@H]1O[C@@H](n2cnc3c2N=CNC[C@H]3O)C[C@@H]1O [Pentostatin] | 102%
